Experimental data published in US20240207202A1, “COMBINATION THERAPIES TARGETING MITOCHONDRIAL BIOGENESIS FOR CANCER THERAPY” (The Wistar Institute of Anatomy and Biology, priority 2015, published 2024).

What was measured:
Type in all cases: cell-based, human
WM9 cells = experiment: Cell viability by CellTiter Glo in WM9 cells; conditions: WM9, 72 h, Gamitrinib titrated with PLX4720 10 μM or PLX4720 10 μM and PD0325901 1 μM
Method: (§1) Cell viability was measured by the MTT assay or CellTiter-Glo luminescent cell viability assay (Promega). For the assessment of cell clonogenicity, cells were seeded into 12-well tissue culture plates at a density of 500 cells/well as biological triplicates in drug-free medium. Medium was refreshed every 3 or 4 days for 14 days. Colonies were then stained overnight with methanol containing 0.05% crystal violet. After extensive washing with distilled H2O, cells were air-dried and subjected to image acquisition using a Nikon D200 DLSR camera.

[1] = tested on: HKI, HKII, PDHE1, PDK1, PDK2, LDHA, PKM1, GLUT1 and GLUT3; experiment: Expression of glycolysis regulators in WM9 cells (qRT-PCR, immunoblot); conditions: WM9, Gamitrinib combined with PLX4720
Method: (§2) One μg total mRNA was reverse transcribed using a Maxima First Strand cDNA Synthesis Kit for qRT-PCR (Thermo Fisher). Fast SYBR® Green Master Mix (Life Technologies) was used with cDNA template and primers to evaluate the expression of target genes and GAPDH. Primers used were purchased from Integrated DNA Technologies. Amplifications were performed using an Applied Biosystems® 7500 Real-Time PCR System (Life Technologies). All experiments were performed in triplicate. Expression ratios of controls were normalized to 1. Please see Extended Experimental Procedures for the list of PCR primer sequences.
(§3) Cells were washed with ice-cold PBS containing 100 μM Na3VO4 and scraped off culture dishes. After centrifugation, cell pellets were lysed in buffer containing 10 mM Tris-HCl, pH 7.8, 150 mM NaCl, 1 mM EDTA, 1% Nonidet P-40, 1 mM Na3VO4 and protease inhibitors (Roche complete protease inhibitor tablets). Lysates were cleared by micro-centrifugation and protein concentrations were determined with Protein Assay Dye Reagent Concentrate (Bio-Rad). For western blots, 25 μg of each lysate were run on 15-well 10% or 12% SDS-PAGE gels and transferred onto nitrocellulose membranes using a dye fast Trans-BlotR Turbo™ transfer system (Bio-Rad). […]

[2] = tested on: BRAF-mutated resistant melanoma cell lines; experiment: Induction of apoptosis and cell death by PSVue 643 staining in acquired drug resistant melanoma cell lines
Method: Adherent melanoma cells were harvested with 0.05% Trypsin-EDTA and were washed once with 1×DPBS. Cells were labeled with CellTrace™ Violet according to the manufacturer's protocol and were allowed to adhere to tissue culture plates overnight following the drug treatment. At indicated time points following the drug treatment, floating and adherent cells were pooled, washed with Hank's Buffered Salt Solution (HBSS) and then stained with CellROX Deep Red at 2.5 μM or MitoTracer Red at 0.25 μM for 1 h in a 37° C. humidified incubator supplied with 5% CO2. Cells were then pelleted, washed with DPBS, and stained with PSVue® 643 at 5 μM diluted in TES buffer for 5 min in the dark. Cells were then immediately subjected to FACS analysis using a BD LSR II flow cytometer and at least 5,000 cells per sample were acquired.
Labeling cells with Propidium Iodide and PSVue—Following centrifugation, cells were resuspended in 0.1 ml 1×PBS, co-stained with propidium iodide at 1 μg/ml and PSVue® 643 at 5 μM, and then stained with PSVue® 643 at 5 μM alone. Cell suspensions were kept in the dark at room temperature for 5 min. 0.2 ml 1×PBS supplemented with 10% FBS was added to each cell suspension and cells were immediately analyzed by BD LSRII.
Separation of live cells from dead cells including early apoptotic cells—Based on the fluorescence of PSVue 643, cells are separated into 2 subpopulations, live cells (PSVue 643Neg) and dead cells including early apoptotic cells (PSVue 643Pos).

SOD2 = SOD2 expression in WM9 cells (qRT-PCR, immunoblot); conditions: WM9, 72 h, Gamitrinib 1 μM with MAPK pathway inhibitors
Method: as §2, §3

[3] = tested on: mitochondrial respiratory chain complex subunits; experiment: Expression of mitochondrial respiratory chain complex subunits in WM9 cells (qRT-PCR, RPPA, immunoblot)
Method: One μg total mRNA was reverse transcribed using a Maxima First Strand cDNA Synthesis Kit for qRT-PCR (Thermo Fisher). Fast SYBR® Green Master Mix (Life Technologies) was used with cDNA template and primers to evaluate the expression of target genes and GAPDH. Primers used were purchased from Integrated DNA Technologies. Amplifications were performed using an Applied Biosystems® 7500 Real-Time PCR System (Life Technologies). All experiments were performed in triplicate. Expression ratios of controls were normalized to 1. Please see Extended Experimental Procedures for the list of PCR primer sequences. The raw data of gene expression microarrays generated from Illumina Chips were normalized, background-corrected and summarized using the R package “lumi” (Du et al., 2008). […] To reduce false positives, the unexpressed probes were removed. The R package “limma” (Smyth, 2004, 2005) was employed for gene differential expression analysis, followed by multiple test correction by the Benjamini and Hochberg procedure (Benjamini and Hochberg, 1995). […] We also conducted GSEA as previously reported (Subramanian et al., 2005). For GSEA, we analyzed gene sets obtained from the Molecular Signatures Database (broadinstitute.org/gsea/msigdb/). The same differential expression analysis method was applied to RPPA data. Cells were washed with ice-cold PBS containing 100 μM Na3VO4 and scraped off culture dishes. After centrifugation, cell pellets were lysed in buffer containing 10 mM Tris-HCl, pH 7.8, 150 mM NaCl, 1 mM EDTA, 1% Nonidet P-40, 1 mM Na3VO4 and protease inhibitors (Roche complete protease inhibitor tablets). Lysates were cleared by micro-centrifugation and protein concentrations were determined with Protein Assay Dye Reagent Concentrate (Bio-Rad). For western blots, 25 μg of each lysate were run on 15-well 10% or 12% SDS-PAGE gels and transferred onto nitrocellulose membranes using a dye fast Trans-BlotR Turbo™ transfer system (Bio-Rad). Blots were blocked in SEA BLOCK Blocking Buffer (Thermo Scientific) diluted with 1×TBS at 1:1 ratio at room temperature for 1 h, incubated overnight with primary antibody at 4° C., stained with secondary antibodies conjugated to IRDye® Infrared Dyes (LI-COR Biosciences) and then visualized using an Odyssey flatbed scanner (LI-COR Biosciences).

melanoma cells = experiment: Cell clonogenicity (colony formation); conditions: long-term pretreatment, Gamitrinib 0.25 and 0.5 μM in combination with PLX4720
Method: as §1

Gamitrinib
cell viability (WM9 cells): significantly impaired cell viability
expression of key regulators of aerobic glycolysis, mRNA and protein [1]: substantially down-regulated
cell death in combination therapy resistant (CR) cell line ([2]; 1 CR cell line (WM9 CR), Gamitrinib 1 and 2.5 μM, 48 h): significantly induced cell death
resistant cell lines in which apoptosis and cell death was significantly induced ([2]; 23 resistant cell lines, 2.5 μM Gamitrinib, 72 hours): 18 of 23
BRAF inhibitor resistant (BR) cell lines in which cell death was significantly induced ([2]; BR cell lines, PLX4720 10 μM plus Gamitrinib 2.5 μM, 48 h): 7 out of 9
SOD2 expression compared to MAPK pathway inhibitors alone, mRNA and protein (SOD2): up-regulation of SOD2
expression of mitochondrial respiratory chain complex subunits (SDHA, SDHB, UQCRC2, ATP5H, cyclophilin D) induced by MAPK inhibitors ([3]; WM9, 72 h, Gamitrinib 1 μM with PLX4720 10 μM or PLX4720 and PD0325901 1 μM, RPPA): significant reduction
5 mitochondrial respiratory chain complex subunits ([3]; WM9, immunoblotting, 72 h time course): down-regulated
colony formation (melanoma cells): substantially inhibited colony formation
